# According to patent publication US10647747B2, “Cyclosporin derivatives and uses thereof” (S&T Global Inc., priority 2010, dated 2020):
# *1 amine or outer side, *2 acyl side, *3 side chain or, on linkers, in order; H or OH if unused. Where a SMILES comes first, the peptide text is derived from it. [ ]: non-standard residue; d: D form. The star is where a group is joined. ξ: configuration not given here. MeBmt = C/C=C/C[C@@H](C)[C@@H](O)[C@H](NC)C(=O)O; X10 = CN(C(CC(C)(C)OCc1ccccc1)C(=O)[*:2])[*:1]; X6 = CCN(CC)CCS[C@H](C(=O)[*:2])N(C)[*:1]; X3 = CC=CCC(C)C(O)C(C(=O)[*:2])N(C)[*:1]; X7 = CN(C(SCCCN1CCOCC1)C(=O)[*:2])[*:1]; NMeIle(3ξ) = CCC(C)[C@H](NC)C(=O)O; NMeI = CC[CH](C)[CH](NC)C(=O)O; NMeL = CN[CH](CC(C)C)C(=O)O; NMeV = CN[CH](C(=O)O)C(C)C; Et2NCH2CH2 = CCN(CC)CC*; NMeC = CN[CH](CS)C(=O)O; NMeS = CN[CH](CO)C(=O)O; Abu = CC[CH](N)C(=O)O
# System: HCV replicon in cell line ET (luc-ubi-neo/ET), Huh7 human hepatoma
# Experiment: HCV subgenomic replicon assay, luciferase end point
# Assay type: cell-based
# Conditions: HCV subgenomic replicon, cell line ET (luc-ubi-neo/ET) Huh7, luciferase end point; read-out: Antiviral activity EC50
row,SMILES,EC50 [nM]
1,"C/C=C/C[C@@H](C)[C@@H](O)[C@H]1C(=O)N[C@@H](CC)C(=O)N(C)[C@H](CSCCN(CC)CC)C(=O)N(C)[C@@H](CC(C)C)C(=O)N[C@@H](C(C)C)C(=O)N(C)[C@@H](CC(C)C)C(=O)N[C@@H](C)C(=O)N[C@H](C)C(=O)N(C)[C@@H](CC(C)C)C(=O)N(C)[C@@H](CC(C)C)C(=O)N(C)[C@@H](C(C)C)C(=O)N1C (single isomer, unassigned; isomer b) [[(S)-(2-(N,N-Diethylamino)ethylthio)methyl-Sar]-3-cyclosporin (isomer B)]",160
2,"C/C=C/C[C@@H](C)[C@@H](O)[C@H]1C(=O)N[C@@H](CC)C(=O)N(C)[C@H](CSCCN(CC)CC)C(=O)N(C)[C@@H](CC(C)(C)O)C(=O)N[C@@H](C(C)C)C(=O)N(C)[C@@H](CC(C)C)C(=O)N[C@@H](C)C(=O)N[C@H](C)C(=O)N(C)[C@@H](CC(C)C)C(=O)N(C)[C@@H](CC(C)C)C(=O)N(C)[C@@H](C(C)C)C(=O)N1C (single isomer, unassigned; isomer b)",90
3,"C/C=C/C[C@@H](C)[C@@H](O)[C@H]1C(=O)N[C@@H](CC)C(=O)N(C)[C@H](CSCCN(C)C)C(=O)N(C)[C@@H](CC(C)(C)O)C(=O)N[C@@H](C(C)C)C(=O)N(C)[C@@H](CC(C)C)C(=O)N[C@@H](C)C(=O)N[C@H](C)C(=O)N(C)[C@@H](CC(C)C)C(=O)N(C)[C@@H](CC(C)C)C(=O)N(C)[C@@H](C(C)C)C(=O)N1C (single isomer, unassigned; isomer b)",130
4,CC=CCC(C)C(O)C1C(=O)NC(CC)C(=O)N(C)C(CSCCCN2CCCC2)C(=O)N(C)C(CC(C)(C)O)C(=O)NC(C(C)C)C(=O)N(C)C(CC(C)C)C(=O)NC(C)C(=O)NC(C)C(=O)N(C)C(CC(C)C)C(=O)N(C)C(CC(C)C)C(=O)N(C)C(C(C)C)C(=O)N1C (stereo not shown),100
5,CC=CCC(C)C(O)C1C(=O)NC(CC)C(=O)N(C)C(COCCN2CCCC2)C(=O)N(C)C(CC(C)(C)O)C(=O)NC(C(C)C)C(=O)N(C)C(CC(C)C)C(=O)NC(C)C(=O)NC(C)C(=O)N(C)C(CC(C)C)C(=O)N(C)C(CC(C)C)C(=O)N(C)C(C(C)C)C(=O)N1C [[(R)-(2-(N-Pyrrolidino)ethoxy)methyl-Sar]-3-[(γ-hydroxy)-N-MeLeu]-4-cyclosporin],200
6,CC=CCC(C)C(O)C1C(=O)NC(CC)C(=O)N(C)C(CSCCN(CC)CC(C)(C)C)C(=O)N(C)C(CC(C)(C)O)C(=O)NC(C(C)C)C(=O)N(C)C(CC(C)C)C(=O)NC(C)C(=O)NC(C)C(=O)N(C)C(CC(C)C)C(=O)N(C)C(CC(C)C)C(=O)N(C)C(C(C)C)C(=O)N1C (stereo not shown),60
7,"CC=CCC(C)C(O)C1C(=O)NC(CC)C(=O)N(C)C(CSCCN(CC)CC)C(=O)N(C)C(C(C)CC)C(=O)NC(C(C)C)C(=O)N(C)C(CC(C)C)C(=O)NC(C)C(=O)NC(C)C(=O)N(C)C(CC(C)C)C(=O)N(C)C(CC(C)C)C(=O)N(C)C(C(C)C)C(=O)N1C [[(S)-(2-(N,N-Diethylamino)ethylthio)methyl-Sar]-3-[N-MeIle]-4-cyclosporin] (cyclo([X3][Abu][NMeC](Et2NCH2CH2)[NMeI]V[NMeL]AA[NMeL][NMeL][NMeV]); configuration not given here)",100
8,"CC=CCC(C)C(O)C1C(=O)NC(CC)C(=O)N(C)C(COCCN(CC)CC)C(=O)N(C)C(C(C)CC)C(=O)NC(C(C)C)C(=O)N(C)C(CC(C)C)C(=O)NC(C)C(=O)NC(C)C(=O)N(C)C(CC(C)C)C(=O)N(C)C(CC(C)C)C(=O)N(C)C(C(C)C)C(=O)N1C [[(R)-(2-(N,N-Diethylamino)ethoxy)methyl-Sar]-3-[N-MeIle]-4-cyclosporin] (cyclo([X3][Abu][NMeS](Et2NCH2CH2)[NMeI]V[NMeL]AA[NMeL][NMeL][NMeV]); configuration not given here)",160
9,CC=CCC(C)C(O)C1C(=O)NC(CC)C(=O)N(C)C(CSCCN2CCCC2)C(=O)N(C)C(CC(C)(C)OC)C(=O)NC(C(C)C)C(=O)N(C)C(CC(C)C)C(=O)NC(C)C(=O)NC(C)C(=O)N(C)C(CC(C)C)C(=O)N(C)C(CC(C)C)C(=O)N(C)C(C(C)C)C(=O)N1C (stereo not shown),90
10,C/C=C/C[C@@H](C)[C@@H](O)[C@H]1C(=O)N[C@@H](CC)C(=O)N(C)[C@H](CSCCCN2CCN(C)CC2)C(=O)N(C)[C@@H](CC(C)(C)O)C(=O)N[C@@H](C(C)C)C(=O)N(C)[C@@H](CC(C)C)C(=O)N[C@@H](C)C(=O)N[C@H](C)C(=O)N(C)[C@@H](CC(C)C)C(=O)N(C)[C@@H](CC(C)C)C(=O)N(C)[C@@H](C(C)C)C(=O)N1C,90

# Same assay, conditions: Hepatitis C virus, Huh-7, Table 14, HCV replicon luciferase; read-out: Antiviral activity EC50
row,SMILES,EC50 [nM]
1,C/C=C/C[C@@H](C)[C@@H](O)[C@H]1C(=O)N[C@@H](CC)C(=O)N(C)[C@H](CSCCCN(C)C)C(=O)N(C)[C@@H](CC(C)(C)O)C(=O)N[C@@H](C(C)C)C(=O)N(C)[C@@H](CC(C)C)C(=O)N[C@@H](C)C(=O)N[C@H](C)C(=O)N(C)[C@@H](CC(C)C)C(=O)N(C)[C@@H](CC(C)C)C(=O)N(C)[C@@H](C(C)C)C(=O)N1C,50
2,C/C=C/C[C@@H](C)[C@@H](O)[C@H]1C(=O)N[C@@H](CC)C(=O)N(C)[C@H](CSCCN2CCN(C)CC2)C(=O)N(C)[C@@H](CC(C)(C)O)C(=O)N[C@@H](C(C)C)C(=O)N(C)[C@@H](CC(C)C)C(=O)N[C@@H](C)C(=O)N[C@H](C)C(=O)N(C)[C@@H](CC(C)C)C(=O)N(C)[C@@H](CC(C)C)C(=O)N(C)[C@@H](C(C)C)C(=O)N1C,30
3,C/C=C/C[C@@H](C)[C@@H](O)[C@H]1C(=O)N[C@@H](CC)C(=O)N(C)[C@H](COCCN(CC)CC)C(=O)N(C)[C@@H](CC(C)(C)OC)C(=O)N[C@@H](C(C)C)C(=O)N(C)[C@@H](CC(C)C)C(=O)N[C@@H](C)C(=O)N[C@H](C)C(=O)N(C)[C@@H](CC(C)C)C(=O)N(C)[C@@H](CC(C)C)C(=O)N(C)[C@@H](C(C)C)C(=O)N1C,20

# Same assay, conditions: Hepatitis C virus, Huh-7, read-out: Antiviral activity EC50, Table 12, HCV replicon luciferase
row,SMILES,EC50 [nM]
1,"C/C=C/C[C@@H](C)[C@@H](O)[C@H]1C(=O)N[C@@H](CC)C(=O)N(C)CC(=O)N(C)[C@@H]([C@@H](C)CC)C(=O)N[C@@H](C(C)C)C(=O)N(C)[C@@H](CC(C)C)C(=O)N[C@@H](C)C(=O)N[C@H](C)C(=O)N(C)[C@@H](CC(C)C)C(=O)N(C)[C@@H](CC(C)C)C(=O)N(C)[C@@H](C(C)C)C(=O)N1C [[N-MeIle]-4-cyclosporin (SDZ-NIM-811), N-MeIle-4-Cyclosporin, reference compound]",150

# Same assay, conditions: Table 12, HCV replicon luciferase; read-out: Antiviral activity EC50
row,SMILES,EC50 [nM]
1,"C/C=C/C[C@@H](C)[C@@H](O)[C@H]1C(=O)N[C@@H](CC)C(=O)N(C)[C@H](SCCN(CC)CC)C(=O)N(C)[C@@H](C(C)CC)C(=O)N[C@@H](C(C)C)C(=O)N(C)[C@@H](CC(C)C)C(=O)N[C@@H](C)C(=O)N[C@H](C)C(=O)N(C)[C@@H](CC(C)C)C(=O)N(C)[C@@H](CC(C)C)C(=O)N(C)[C@@H](C(C)C)C(=O)N1C (stereo partly drawn) [(R)-2-(N,N-Diethylamino)ethylthio-Sar]-3-[N-MeIle]-4-cyclosporin] (cyclo(A[dA][NMeL][NMeL][NMeV][MeBmt][Abu][X6][NMeIle(3ξ)]V[NMeL]))",1870

# Same assay, conditions: Table 13, HCV replicon luciferase; read-out: Antiviral activity EC50
row,SMILES,EC50 [nM]
1,"C/C=C/C[C@@H](C)[C@@H](O)[C@H]1C(=O)N[C@@H](CC)C(=O)N(C)[C@H](CSCCN(CC)CC)C(=O)N(C)[C@@H](CC(C)(C)O)C(=O)N[C@@H](C(C)C)C(=O)N(C)[C@@H](CC(C)C)C(=O)N[C@@H](C)C(=O)N[C@H](C)C(=O)N(C)[C@@H](CC(C)C)C(=O)N(C)[C@@H](CC(C)C)C(=O)N(C)[C@@H](C(C)C)C(=O)N1C (single isomer, unassigned; isomer b)",30
2,CC=CCC(C)C(O)C1C(=O)NC(CC)C(=O)N(C)C(SCCCN2CCOCC2)C(=O)N(C)C(CC(C)(C)OCc2ccccc2)C(=O)NC(C(C)C)C(=O)N(C)C(CC(C)C)C(=O)NC(C)C(=O)NC(C)C(=O)N(C)C(CC(C)C)C(=O)N(C)C(CC(C)C)C(=O)N(C)C(C(C)C)C(=O)N1C [[(S)-(3-(N-Morpholino)propylthio-Sar]-3-[(γ-benzyloxy)-N-MeLeu]-4-cyclosporin] (cyclo([X3][Abu][X7][X10]V[NMeL]AA[NMeL][NMeL][NMeV]); configuration not given here),280
3,"CC=CCC(C)C(O)C1C(=O)NC(CC)C(=O)N(C)C(SCCCN(CC)CC)C(=O)N(C)C(CC(C)(C)O)C(=O)NC(C(C)C)C(=O)N(C)C(CC(C)C)C(=O)NC(C)C(=O)NC(C)C(=O)N(C)C(CC(C)C)C(=O)N(C)C(CC(C)C)C(=O)N(C)C(C(C)C)C(=O)N1C [(S)-3-(N,N-Diethylamino)propylthio-Sar]-3-[(γ-hydroxy)-N-MeLeu]-4-cyclosporin]",70

# Same assay, conditions: Table 16, HCV replicon luciferase; read-out: Antiviral activity EC50
row,SMILES,EC50 [nM]
1,C/C=C/C[C@@H](C)[C@@H](O)[C@H]1C(=O)N[C@@H](CC)C(=O)N(C)[C@H](CSCCCN2CCN(CC(C)C)CC2)C(=O)N(C)[C@@H](CC(C)(C)O)C(=O)N[C@@H](C(C)C)C(=O)N(C)[C@@H](CC(C)C)C(=O)N[C@@H](C)C(=O)N[C@H](C)C(=O)N(C)[C@@H](CC(C)C)C(=O)N(C)[C@@H](CC(C)C)C(=O)N(C)[C@@H](C(C)C)C(=O)N1C,50
2,CC=CCC(C)C(O)C1C(=O)NC(CC)C(=O)N(C)C(CSCCCNCC(C)(C)C)C(=O)N(C)C(CC(C)(C)O)C(=O)NC(C(C)C)C(=O)N(C)C(CC(C)C)C(=O)NC(C)C(=O)NC(C)C(=O)N(C)C(CC(C)C)C(=O)N(C)C(CC(C)C)C(=O)N(C)C(C(C)C)C(=O)N1C (stereo not shown),50
3,CC=CCC(C)C(O)C1C(=O)NC(CC)C(=O)N(C)C(CSCCCCOCCN(CC)CC)C(=O)N(C)C(CC(C)(C)O)C(=O)NC(C(C)C)C(=O)N(C)C(CC(C)C)C(=O)NC(C)C(=O)NC(C)C(=O)N(C)C(CC(C)C)C(=O)N(C)C(CC(C)C)C(=O)N(C)C(C(C)C)C(=O)N1C (stereo not shown),50
4,CC=CCC(C)C(O)C1C(=O)NC(CC)C(=O)N(C)C(CSCCCN2CCN(C(C)C)CC2)C(=O)N(C)C(CC(C)(C)O)C(=O)NC(C(C)C)C(=O)N(C)C(CC(C)C)C(=O)NC(C)C(=O)NC(C)C(=O)N(C)C(CC(C)C)C(=O)N(C)C(CC(C)C)C(=O)N(C)C(C(C)C)C(=O)N1C (stereo not shown),50
5,C/C=C/C[C@@H](C)[C@@H](O)[C@H]1C(=O)N[C@@H](CC)C(=O)N(C)[C@H](CSCCN2CCN(CC)CC2)C(=O)N(C)[C@@H](CC(C)(C)O)C(=O)N[C@@H](C(C)C)C(=O)N(C)[C@@H](CC(C)C)C(=O)N[C@@H](C)C(=O)N[C@H](C)C(=O)N(C)[C@@H](CC(C)C)C(=O)N(C)[C@@H](CC(C)C)C(=O)N(C)[C@@H](C(C)C)C(=O)N1C,60
6,C/C=C/C[C@@H](C)[C@@H](O)[C@H]1C(=O)N[C@@H](CC)C(=O)N(C)[C@H](CSCCCN2CCN(C)CC2)C(=O)N(C)[C@@H](CC(C)(C)O)C(=O)N[C@@H](C(C)C)C(=O)N(C)[C@@H](CC(C)C)C(=O)N[C@@H](C)C(=O)N[C@H](C)C(=O)N(C)[C@@H](CC(C)C)C(=O)N(C)[C@@H](CC(C)C)C(=O)N(C)[C@@H](C(C)C)C(=O)N1C,40
7,CC=CCC(C)C(O)C1C(=O)NC(CC)C(=O)N(C)C(CSCCCCN(CC)CC)C(=O)N(C)C(CC(C)(C)O)C(=O)NC(C(C)C)C(=O)N(C)C(CC(C)C)C(=O)NC(C)C(=O)NC(C)C(=O)N(C)C(CC(C)C)C(=O)N(C)C(CC(C)C)C(=O)N(C)C(C(C)C)C(=O)N1C (stereo not shown),70
